We go through one molecule from US6353017B1, “Dipeptide nitriles” (Novartis AG, priority 1997, dated 2002).

A word on the melting point: it is the temperature, or range, at which the solid turns liquid. As to `COC(=O)c1cccc(OCCC(C#N)NC(=O)[C@H](Cc2cccc(C)c2)NC(=O)C(c2ccccc2)c2ccccc2)c1` (stereo partly drawn) [Example 305, N-[3-(3-(methoxycarbonyl)-phenoxy)-1-cyanopropyl]-3-methyl-Nα-(2,2-diphenylacetyl)-L-phenylalaninamide], the melting point lay within 152 to 153 °C.
